{"source": "patent US20050261237A1", "about": "“Nucleoside phosphonate analogs” (priority 2003, published 2005)", "origin": "cited, not measured here", "key": {"[1]": {"target": "PNP enzyme from Mycobacterium tuberculosis (MtPNP) (Mycobacterium tuberculosis, UniProt P9WP01)", "sequence (P9WP01 whole entry)": "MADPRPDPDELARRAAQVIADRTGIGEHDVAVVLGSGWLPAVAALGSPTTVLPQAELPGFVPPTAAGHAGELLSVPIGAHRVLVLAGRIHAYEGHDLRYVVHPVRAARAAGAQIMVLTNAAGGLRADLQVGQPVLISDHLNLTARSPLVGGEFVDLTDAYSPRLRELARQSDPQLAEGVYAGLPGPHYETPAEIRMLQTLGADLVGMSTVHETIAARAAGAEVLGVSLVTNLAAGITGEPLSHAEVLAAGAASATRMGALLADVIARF", "details": "Lewandowics A. et al., Biochemistry (2003) 42, 6057"}, "[2]": {"system": "HIV", "details": "described in the literature; 61.1 with Base=G"}}, "data": [{"compound": "Nc1nc2c(CN3C[C@H](CO)[C@@H](O)C3)c[nH]c2c(=O)[nH]1", "note": "[DADMe-ImmG]", "values": [{"measurement": "inhibition of the PNP enzyme from Mycobacterium tuberculosis (MtPNP)", "setting": "[1]", "result": "highly potent"}]}, {"compound": "Nc1nc(=O)c2ncn([C@@H]3C[C@H](CO)[C@H]3CO)c2[nH]1", "note": "[lubocavir]", "values": [{"measurement": "anti-HIV activity", "setting": "[2]", "result": 30, "unit": "µM"}]}]}
